Laboratory results as given in ChEMBL document CHEMBL1201862, “PubChem BioAssay data set” (2004).
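Dose response: 5 concentrations. Exposure: 48 h. Format: 96-well plates. Endpoint: linear interpolation; highest concentration if not reached. At the GI50, growth is halved.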 The source made the active and inactive calls. Cut-off read from the data, not from the text of the source: active = GI50 up to about 1.1 µM and inactive = higher.

Legend:
Experiment in all cases: DTP human tumour cell line panel, 48 h
K562 = tested on: K562
SW-620 = tested on: SW-620
SF-268 = tested on: SF-268
HOP-62 = tested on: HOP-62
SN12C = tested on: SN12C
SK-MEL-5 = tested on: SK-MEL-5
OVCAR-4 = tested on: OVCAR-4
Malme-3M = tested on: Malme-3M
UACC-62 = tested on: UACC-62
SF-539 = tested on: SF-539
LOX IMVI = tested on: LOX IMVI
MCF7 = tested on: MCF7
NCI-H522 = tested on: NCI-H522
SK-MEL-28 = tested on: SK-MEL-28
A549 = tested on: A549
RPMI-8226 = tested on: RPMI-8226
SF-295 = tested on: SF-295
UO-31 = tested on: UO-31
KM12 = tested on: KM12
HCT-116 = tested on: HCT-116

Structure (SMILES)	GI50 (K562)	GI50 (SW-620)	GI50 (SF-268)	GI50 (HOP-62)	GI50 (SN12C)	GI50 (SK-MEL-5)	GI50 (OVCAR-4)	GI50 (Malme-3M)	GI50 (UACC-62)	GI50 (SF-539)	GI50 (LOX IMVI)	GI50 (MCF7)	GI50 (NCI-H522)	GI50 (SK-MEL-28)	GI50 (A549)	GI50 (RPMI-8226)	GI50 (SF-295)	GI50 (UO-31)	GI50 (KM12)	GI50 (HCT-116)
Cc1ccccc1NC(=S)N/N=C1\C(=O)Nc2ccccc21	> 100 µM (inactive)	> 100 µM (inactive)	15.1 µM (inactive)	> 100 µM (inactive)	> 100 µM (inactive)	> 100 µM (inactive)	> 100 µM (inactive)	> 100 µM (inactive)	> 100 µM (inactive)	> 100 µM (inactive)	> 100 µM (inactive)	> 100 µM (inactive)	> 100 µM (inactive)	15.1 µM (inactive)	> 100 µM (inactive)	> 100 µM (inactive)	> 100 µM (inactive)	> 100 µM (inactive)	> 100 µM (inactive)	> 100 µM (inactive)
COc1ccc2c(CCNS(=O)(=O)c3ccccc3)c(C(C)=O)[nH]c2c1	> 74 µM (inactive)	> 100 µM (inactive)	52.1 µM (inactive)	> 50.6 µM (inactive)	38.5 µM (inactive)	> 42.8 µM (inactive)	51.6 µM (inactive)	> 100 µM (inactive)	> 58.5 µM (inactive)	82.4 µM (inactive)	> 68.2 µM (inactive)	51.4 µM (inactive)	20.5 µM (inactive)	63.8 µM (inactive)	54.3 µM (inactive)	> 100 µM (inactive)	80.4 µM (inactive)	9.51 µM (inactive)	54.2 µM (inactive)	45.3 µM (inactive)
COc1cc(/C=N\O)nc(-c2ccccn2)c1	0.399 µM (active)	0.664 µM (active)	0.452 µM (active)	0.137 µM (active)	0.264 µM (active)	0.298 µM (active)	0.504 µM (active)	0.741 µM (active)	0.448 µM (active)	0.575 µM (active)	0.221 µM (active)	0.474 µM (active)	0.129 µM (active)	0.729 µM (active)	0.344 µM (active)	0.337 µM (active)	0.339 µM (active)	0.161 µM (active)	0.55 µM (active)	0.301 µM (active)
O=[N+]([O-])c1ccc(Cl)c(/C=N/C23CC4CC(CC(C4)C2)C3)c1	2.89 µM (inactive)	> 10 µM (inactive)	> 10 µM (inactive)	> 10 µM (inactive)	> 10 µM (inactive)	3.5 µM (inactive)	> 10 µM (inactive)	> 10 µM (inactive)	> 10 µM (inactive)	5.33 µM (inactive)	> 9.12 µM (inactive)	3.08 µM (inactive)	> 10 µM (inactive)	> 10 µM (inactive)	> 10 µM (inactive)	> 6.93 µM (inactive)	> 10 µM (inactive)	> 10 µM (inactive)	> 9.48 µM (inactive)	1.2 µM (inactive)
CCOC(=O)/C=C\C(C#N)(C#N)/N=C/c1ccsc1	3.13 µM (inactive)	1.62 µM (inactive)	6.75 µM (inactive)	19.4 µM (inactive)	18.2 µM (inactive)	20 µM (inactive)	6.43 µM (inactive)	2.29 µM (inactive)	17 µM (inactive)	6.55 µM (inactive)	4.06 µM (inactive)	2.51 µM (inactive)	0.9 µM (active)	2.38 µM (inactive)	19.1 µM (inactive)	1.33 µM (inactive)	29.3 µM (inactive)	2.7 µM (inactive)	19.5 µM (inactive)	2.17 µM (inactive)
CC(C)OP(=O)(OC(C)C)/C(C#N)=C/c1ccco1	> 100 µM (inactive)	> 100 µM (inactive)	> 100 µM (inactive)	> 100 µM (inactive)	> 100 µM (inactive)	> 100 µM (inactive)	> 100 µM (inactive)	> 100 µM (inactive)	> 100 µM (inactive)	> 100 µM (inactive)	> 100 µM (inactive)	> 100 µM (inactive)	> 100 µM (inactive)	> 100 µM (inactive)	> 100 µM (inactive)	> 100 µM (inactive)	> 100 µM (inactive)	5.19 µM (inactive)	> 100 µM (inactive)	> 100 µM (inactive)
Nc1nc(N)c2c(n1)NC(c1ccccc1)CC(/C=C/c1ccc(Cl)cc1)=N2 (centres undefined)	2.65 µM (inactive)	10.4 µM (inactive)	15.3 µM (inactive)	14.8 µM (inactive)	8.89 µM (inactive)	9.4 µM (inactive)	6.41 µM (inactive)	13.5 µM (inactive)	11.6 µM (inactive)	15.5 µM (inactive)	3.49 µM (inactive)	3.48 µM (inactive)	1.76 µM (inactive)	13.5 µM (inactive)	12.2 µM (inactive)	3.12 µM (inactive)	14.1 µM (inactive)	9.12 µM (inactive)	3.52 µM (inactive)	1.99 µM (inactive)
O=C1c2cscc2C(=O)c2c(OCc3ccccc3)ccc(OCc3ccccc3)c21	61.1 µM (inactive)	> 100 µM (inactive)	> 100 µM (inactive)	> 100 µM (inactive)	> 100 µM (inactive)	> 100 µM (inactive)	> 100 µM (inactive)	> 100 µM (inactive)	> 100 µM (inactive)	> 100 µM (inactive)	97.9 µM (inactive)	> 100 µM (inactive)	> 100 µM (inactive)	> 100 µM (inactive)	> 100 µM (inactive)	> 100 µM (inactive)	> 100 µM (inactive)	62.5 µM (inactive)	> 100 µM (inactive)	91.6 µM (inactive)
CC(=O)CC1(CBr)Nc2ccc([N+](=O)[O-])cc2NC1=O (centres undefined)	83.8 µM (inactive)	28.7 µM (inactive)	> 100 µM (inactive)	83.2 µM (inactive)	93.1 µM (inactive)	> 100 µM (inactive)	81.8 µM (inactive)	92.3 µM (inactive)	> 100 µM (inactive)	44.1 µM (inactive)	52.1 µM (inactive)	40.9 µM (inactive)	18.5 µM (inactive)	97.7 µM (inactive)	> 100 µM (inactive)	44.3 µM (inactive)	> 100 µM (inactive)	61.9 µM (inactive)	56.2 µM (inactive)	31.8 µM (inactive)
COc1cc2cc(C(=O)N3CC(CCl)c4c3cc(NC(=O)C(C)(C)c3ccccc3[N+](=O)[O-])c3ccccc43)[nH]c2c(OC)c1OC (centres undefined)	0.991 µM (active)	1.09 µM (active)	1.88 µM (inactive)	0.187 µM (active)	4.23 µM (inactive)	1.77 µM (inactive)	3.08 µM (inactive)	7.31 µM (inactive)	3.32 µM (inactive)	4.78 µM (inactive)	0.993 µM (active)	0.142 µM (active)	1.99 µM (inactive)	7.16 µM (inactive)	0.675 µM (active)	173 µM (inactive)	1.67 µM (inactive)	0.968 µM (active)	1.86 µM (inactive)	0.393 µM (active)
Nc1ccc2nc3ccc(N)cc3[n+](-c3ccccc3)c2c1	69.3 µM (inactive)	37.3 µM (inactive)	29 µM (inactive)	43.3 µM (inactive)	25.4 µM (inactive)	25.6 µM (inactive)	> 100 µM (inactive)	18.6 µM (inactive)	64.7 µM (inactive)	60.7 µM (inactive)	15.7 µM (inactive)	5.07 µM (inactive)	11.6 µM (inactive)	> 100 µM (inactive)	45.4 µM (inactive)	> 100 µM (inactive)	33.3 µM (inactive)	> 100 µM (inactive)	36 µM (inactive)	26.4 µM (inactive)
CC[C@H]1C=CCC[C@@]2(C[C@@H]3CC[C@@H]4[C@H](C(=O)OCCCCCCCCCCCCCCCC(=O)O)[C@]5(CCC[C@@H](C)O5)NC(=[N+]34)N2)O1 [CRAMBESCIDIN 657]	0.121 µM (active)	0.189 µM (active)	0.367 µM (active)	0.367 µM (active)	0.418 µM (active)	0.104 µM (active)	0.157 µM (active)	0.153 µM (active)	0.0927 µM (active)	0.272 µM (active)	0.12 µM (active)	0.214 µM (active)	0.131 µM (active)	0.743 µM (active)	0.164 µM (active)	0.109 µM (active)	0.163 µM (active)	0.125 µM (active)	0.207 µM (active)	0.169 µM (active)
COc1ccc(/C=C2\C[C@H]3[C@@H]4CC=C5C[C@@H](OC(C)=O)CC[C@]5(C)[C@H]4CC[C@]3(C)C2=O)cc1OC	7.96 µM (inactive)	> 100 µM (inactive)	86.7 µM (inactive)	0.815 µM (active)	42.3 µM (inactive)	10.6 µM (inactive)	63.4 µM (inactive)	34.7 µM (inactive)	> 100 µM (inactive)	> 100 µM (inactive)	42.9 µM (inactive)	38.4 µM (inactive)	23.5 µM (inactive)	> 100 µM (inactive)	28.5 µM (inactive)	11.3 µM (inactive)	0.47 µM (active)	12.2 µM (inactive)	0.971 µM (active)	38.8 µM (inactive)
CCOC(=O)c1c(Br)c(-c2ccc([N+](=O)[O-])cc2)c(Br)n1C	> 10 µM (inactive)	–	> 10 µM (inactive)	> 10 µM (inactive)	9.06 µM (inactive)	> 10 µM (inactive)	> 10 µM (inactive)	> 10 µM (inactive)	7.28 µM (inactive)	> 10 µM (inactive)	> 10 µM (inactive)	> 10 µM (inactive)	> 10 µM (inactive)	> 10 µM (inactive)	> 10 µM (inactive)	> 10 µM (inactive)	> 10 µM (inactive)	9.16 µM (inactive)	> 10 µM (inactive)	> 10 µM (inactive)
